Test results published in PubChem BioAssay AID1963828 (Molecular Pharmacology Branch, DTP, NCI, 2024).

Test system: 991263-137-R1-J2-PDC complex spheroid viability
Assay: Anticancer human tumor 991263-137-R1-J2-PDC patient-derived colon adenocarcinoma cell line growth inhibition [POLQ]
Settings: for IC50: curve of first compound; for viability, T/C: stronger effect = lower value
Description: Multicellular complex tumor spheroid response to Polymerase (POL) inhibitors (novobiocin, ART-558, RP6685) in combination with a variety of drugs and investigational agents in selected tumor cell lines
The POL inhibitors (novobiocin, ART-558, and RP6685) were evaluated both individually and in combination with standard of care and investigational anticancer small molecules within a complex spheroid model of solid tumors. . Complex spheroids include a stromal component modeled by human endothelial cells (HUVEC) and fibroblasts modeled by human mesenchymal stem cells (MSCs). The concentration ranges selected for each drug and investigational agent were based upon clinically achievable concentrations if the clinical Cmax of the agent was known.
Compounds. The drugs and investigational agents: novobiocin (NSC847541), ART-558 (NSC835418), RP-6685 (NSC848927), peposertib (NSC802822), ceralasertib (NSC780249), elimusertib (NSC800525), camonsertib (NSC841442), AZD-1390 (NSC803789), olaparib (NSC753686), talazoparib (NSC767125), rucaparib (NSC756644), sotorasib (NSC818433), MRTX-1133 (NSC836407), SN-38 (NSC673596), topotecan (NSC609699), epotoside (NSC141540), doxorubicin (NSC123127), gemcitabine (NSC613327), 5-fluorouracil (NSC19893), paclitaxel (NSC125973), vemurafenib (NSC761431), MSA-2 (NSC828583), SN-011 (NSC837082), adavosertib (NSC754352), prexasertib (NSC758257), carboplatin (NSC241240) and oxaliplatin (NSC266046), were obtained from the National Cancer Institute (NCI) Developmental Therapeutics Program Chemical Repository (21). The FDA-approved anticancer drug set is available from the Developmental Therapeutics Program at https://dtp.cancer.gov/organization/dscb/obtaining/. […] The stock solutions were prepared in dimethyl sulfoxide (DMSO, Sigma-Aldrich, St. Louis, MO, cat. D2650), except for the platinum compounds which were prepared in saline (Quality Biological, Gaithersburg, MD, cat. 114-055-101), at 800-fold the tested concentration and stored at -70 degrees C prior to their use. All drugs and investigational agents were tested over a range starting from a high concentration at or near the clinical Cmax and decreasing in half-log increments. If the clinical Cmax for an agent had not been determined, the highest concentration tested was 10 microM, except for SN-38, which was tested at a high concentration of 1 microM.
Cell Culture. All cells were maintained in an incubator at 37 degrees C and 5% CO2 with 95% humidity. The PDC lines were cultured according to standard operating procedures established by the NCI PDMR (https://pdmr.cancer.gov). Table 3 of the manuscript, lists the cell lines along with the number of the three cell types plated to form the mct-spheroids and media for tumor cell growth. After thawing, all PDC lines, except 997537-175-T-J1-PDC and 415267-285-R-J2-PDC, were cultured in Matrigel-coated flasks prepared with a working solution of 1X Ham's F-12 nutrient mix, without supplementation (Thermo Fisher Scientific, cat. 11765054), 100 U/mL penicillin-streptomycin (Thermo Fisher Scientific, cat. 15140122), and 2.5% Matrigel (Corning Inc., Corning, NY, cat. 354248) for the first three passages. The two PDC lines 997537-175-T-J1-PDC and 415267-285-R-J2-PDC were cultured on uncoated flasks. The 857933-349-R-J2-PDC line was cultured in 6C/Colon 1B media containing advanced DMEM/F-12 (Thermo Fisher Scientific, cat. 12634028), 10 mM HEPES (Thermo Fisher Scientific, cat. 15630080), 1X GlutaMAX supplement (Thermo Fisher Scientific, cat. 35050061), 0.1 mg/mL primocin (InvivoGen, San Diego, CA, cat. ant-pm-2), 10% defined fetal bovine serum, heat inactivated (HyClone Laboratories Inc., Logan, UT, cat. SH30070.03HI), 50% L-WRN conditioned media (ATCC, cat. CRL-3276), 1.25 mM N-Acetyl-L-cysteine (Sigma-Aldrich, cat. A9165), 10 mM nicotinamide (Sigma-Aldrich, cat. N0636), 1X B-27 supplement (Thermo Fisher Scientific, cat. 17504044), 1X N-2 supplement (Thermo Fisher Scientific, cat. […]

[1] = second compound 0.0316 µM, first compound 0.0316 µM
[2] = second compound 0.0316 µM, first compound 0.1 µM
[3] = second compound 0.0316 µM, first compound 0.316 µM
[4] = second compound 0.0316 µM, first compound 1 µM
[5] = second compound 0.0316 µM, first compound 3.16 µM
[6] = second compound 0.0316 µM, first compound 10 µM
[7] = second compound 0.1 µM, first compound 0.0316 µM
[8] = second compound 0.1 µM, first compound 0.1 µM
[9] = second compound 0.1 µM, first compound 0.316 µM
[10] = second compound 0.1 µM, first compound 1 µM
[11] = second compound 0.1 µM, first compound 3.16 µM
[12] = second compound 0.1 µM, first compound 10 µM
[13] = second compound 0.316 µM, first compound 0.0316 µM
[14] = second compound 0.316 µM, first compound 0.1 µM
[15] = second compound 0.316 µM, first compound 0.316 µM
[16] = second compound 0.316 µM, first compound 1 µM
[17] = second compound 0.316 µM, first compound 3.16 µM
[18] = second compound 0.316 µM, first compound 10 µM
[19] = second compound 1 µM, first compound 0.0316 µM
[20] = second compound 1 µM, first compound 0.1 µM
[21] = second compound 1 µM, first compound 0.316 µM
[22] = second compound 1 µM, first compound 1 µM
[23] = second compound 1 µM, first compound 3.16 µM
[24] = second compound 1 µM, first compound 10 µM
[25] = second compound 3.16 µM, first compound 0.0316 µM
[26] = second compound 3.16 µM, first compound 0.1 µM
[27] = second compound 3.16 µM, first compound 0.316 µM
[28] = second compound 3.16 µM, first compound 1 µM
[29] = second compound 3.16 µM, first compound 3.16 µM
[30] = second compound 3.16 µM, first compound 10 µM
[31] = second compound 10 µM, first compound 0.0316 µM
[32] = second compound 10 µM, first compound 0.1 µM
[33] = second compound 10 µM, first compound 0.316 µM
[34] = second compound 10 µM, first compound 1 µM
[35] = second compound 10 µM, first compound 3.16 µM
[36] = second compound 10 µM, first compound 10 µM
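Note: spheroids exposed to compounds for 7 days before readout.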
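Throughout, for viability, T/C: 100% = DMSO vehicle control viability.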

**Q.** Which results are given for `Nc1ccn(C2OC(CO)C(O)C2(F)F)c(=O)n1` (centres undefined) + COC1C(OC(N)=O)C(O)C(Oc2ccc3c(O)c(NC(=O)c4ccc(O)c(CC=C(C)C)c4)c(=O)oc3c2C)OC1(C)C?
**A.** IC50 (second compound 0.0316 µM): 553 nM; IC50 (second compound 0.1 µM): 898 nM; IC50 (second compound 0.316 µM): 1920 nM; IC50 (second compound 1 µM): 860 nM; IC50 (second compound 3.16 µM): 736 nM; IC50 (second compound 10 µM): 1110 nM; viability, T/C [1]: 77.8%; viability, T/C [2]: 56%; viability, T/C [3]: 56.4%; viability, T/C [4]: 46.9%; viability, T/C [5]: 47.6%; viability, T/C [6]: 36.6%; viability, T/C [7]: 67.6%; viability, T/C [8]: 60.5%; viability, T/C [9]: 57.5%; viability, T/C [10]: 46.7%; viability, T/C [11]: 45.5%; viability, T/C [12]: 42%; viability, T/C [13]: 65.1%; viability, T/C [14]: 70.8%; viability, T/C [15]: 62%; viability, T/C [16]: 54.1%; viability, T/C [17]: 46.9%; viability, T/C [18]: 33%; viability, T/C [19]: 72.8%; viability, T/C [20]: 69.9%; viability, T/C [21]: 53.7%; viability, T/C [22]: 48.5%; viability, T/C [23]: 43.4%; viability, T/C [24]: 35.5%; viability, T/C [25]: 72.1%; viability, T/C [26]: 63.5%; viability, T/C [27]: 58%; viability, T/C [28]: 48%; viability, T/C [29]: 39.1%; viability, T/C [30]: 37.9%; viability, T/C [31]: 69.4%; viability, T/C [32]: 75.7%; viability, T/C [33]: 59.7%; viability, T/C [34]: 53.3%; viability, T/C [35]: 38.2%; viability, T/C [36]: 34.2%

**Q.** For `O=C(c1cc(Cc2n[nH]c(=O)c3ccccc23)ccc1F)N1CCN(C(=O)C2CC2)CC1` + COC1C(OC(N)=O)C(O)C(Oc2ccc3c(O)c(NC(=O)c4ccc(O)c(CC=C(C)C)c4)c(=O)oc3c2C)OC1(C)C, which IC50 (second compound 0.0316 µM) is on record?
**A.** The IC50 was > 10000 nM.

**Q.** What about the IC50 (second compound 0.1 µM) of the same molecule?
**A.** The IC50 was > 10000 nM.

**Q.** What about the IC50 (second compound 0.316 µM) of the same molecule?
**A.** Its IC50 is > 10000 nM.

**Q.** What about the IC50 (second compound 1 µM) of the same molecule?
**A.** Its IC50 is > 10000 nM.

**Q.** And the IC50 (second compound 3.16 µM)?
**A.** Its IC50 is > 10000 nM.

**Q.** What about the IC50 (second compound 10 µM) of the same molecule?
**A.** Its IC50 is > 10000 nM.

**Q.** What about the viability, T/C [1] of the same molecule?
**A.** Its viability, T/C is 99.2%.

**Q.** What about the viability, T/C [2] of the same molecule?
**A.** The viability, T/C was 96.8%.

**Q.** What about the viability, T/C [3] of the same molecule?
**A.** Its viability, T/C is 90.2%.

**Q.** And the viability, T/C [4]?
**A.** The viability, T/C was 92.7%.

**Q.** What about the viability, T/C [5] of the same molecule?
**A.** Its viability, T/C is 96.9%.

**Q.** And the viability, T/C [6]?
**A.** The viability, T/C was 95.5%.

**Q.** What about the viability, T/C [7] of the same molecule?
**A.** The viability, T/C was 99.2%.

**Q.** And the viability, T/C [8]?
**A.** The viability, T/C was 101%.

**Q.** And the viability, T/C [9]?
**A.** Its viability, T/C is 100%.

**Q.** What about the viability, T/C [10] of the same molecule?
**A.** Its viability, T/C is 82.1%.

**Q.** What about the viability, T/C [11] of the same molecule?
**A.** Its viability, T/C is 85.5%.

**Q.** And the viability, T/C [12]?
**A.** Its viability, T/C is 85.6%.

**Q.** What about the viability, T/C [13] of the same molecule?
**A.** Its viability, T/C is 113%.

**Q.** What about the viability, T/C [14] of the same molecule?
**A.** Its viability, T/C is 109%.

**Q.** And the viability, T/C [15]?
**A.** Its viability, T/C is 81.6%.

**Q.** And the viability, T/C [16]?
**A.** Its viability, T/C is 92.5%.

**Q.** What about the viability, T/C [17] of the same molecule?
**A.** Its viability, T/C is 113%.

**Q.** What about the viability, T/C [18] of the same molecule?
**A.** Its viability, T/C is 108%.

**Q.** What about the viability, T/C [19] of the same molecule?
**A.** The viability, T/C was 93.9%.

**Q.** And the viability, T/C [20]?
**A.** Its viability, T/C is 98.1%.

**Q.** And the viability, T/C [21]?
**A.** The viability, T/C was 78.2%.

**Q.** What about the viability, T/C [22] of the same molecule?
**A.** The viability, T/C was 93.7%.

**Q.** What about the viability, T/C [23] of the same molecule?
**A.** Its viability, T/C is 73.5%.

**Q.** And the viability, T/C [24]?
**A.** Its viability, T/C is 101%.

**Q.** What about the viability, T/C [25] of the same molecule?
**A.** Its viability, T/C is 94.5%.

**Q.** And the viability, T/C [26]?
**A.** Its viability, T/C is 103%.

**Q.** And the viability, T/C [27]?
**A.** The viability, T/C was 104%.

**Q.** What about the viability, T/C [28] of the same molecule?
**A.** Its viability, T/C is 85%.

**Q.** And the viability, T/C [29]?
**A.** Its viability, T/C is 109%.

**Q.** And the viability, T/C [30]?
**A.** Its viability, T/C is 113%.

**Q.** What about the viability, T/C [31] of the same molecule?
**A.** The viability, T/C was 82.4%.

**Q.** And the viability, T/C [32]?
**A.** Its viability, T/C is 94.7%.

**Q.** And the viability, T/C [33]?
**A.** Its viability, T/C is 106%.

**Q.** What about the viability, T/C [34] of the same molecule?
**A.** Its viability, T/C is 78.4%.

**Q.** And the viability, T/C [35]?
**A.** Its viability, T/C is 112%.

**Q.** And the viability, T/C [36]?
**A.** Its viability, T/C is 103%.
